Consider seven compounds from patent US20210145852A1, “Combination Therapies for Treating Muscular Dystrophy” (Sarepta Therapeutics, Inc., priority 2017, published 2021).

The test system of data set [1] is cNF-κB. The settings on record: in vitro; cited from earlier work.
Data set [2] deals with Mdx mice. The note with it: cited from earlier work; for inflammation and fibrosis: mdx mice (Hammers et al.); for phenotype: mdx mouse, long-term treatment; for diaphragm function: mouse DMD model (mdx).
The subject of data set [3] is golden retriever muscular dystrophy (GRMD) dog. The note with it: cited from earlier work; for phenotype: GRMD dog, long-term treatment; for diaphragm function: dog DMD model.
For data set [4] the following is noted: cited from earlier work.
Data set [5] has as its system mouse dystrophin exon 23 pre-mRNA. In words: RT-PCR analysis for exon 23 skipping in Mdx mice. The class given is in vivo. The note with it: muscle of quadriceps, diaphragm and heart of Mdx mice; 4 weeks treatment. The source says:
(§1) Wild-type (WT) (C57BL/10ScSn/J) and Mdx (C57BL/10ScSn-Dmd^mdx/J) mice were used to test the efficacy of the M23D PMO (AVI-4225) in combination with CAT-1004. 5-week old mice were acquired from Jackson Labs and acclimated for one-week. The treatment duration was 4 weeks and began when the mice were 6 weeks of age. Mice were divided into the following five treatment groups, each with N=12: (1) wild-type mice treated with saline, (2) Mdx mice treated with saline, (3) Mdx mice treated with CAT-1004, (4) Mdx mice treated with the M23D PMO, and (5) Mdx mice treated with the M23D PMO in combination with CAT-1004. Mice were dosed weekly with M23D PMO (AVI-4225) at 40 mg/kg by IV injection and treated with CAT-1004 (1%) in their diet. All non-CAT-1004 animals were fed a normal chow control diet and all non-M23D PMO animals were given weekly IV injections of saline. Food consumption was closely monitored and the feed was changed twice per week. Mice were sacrificed at 10 weeks of age (4 weeks post-first dose). The quadriceps, diaphragm, and heart were harvested from each of the respective treatment groups.
For exon skipping analysis, quadriceps, diaphragm, and heart tissue samples were homogenized. […] Exon 23 skipping was determined by Caliper imaging. […] Percentage of skipping was determined using the formula: % skipping=skipped molarity/(unskipped+skipped molarity)×100%. […]

For data set [6] the following is noted: phase I clinical program, adults, placebo-controlled studies; cited from earlier work.
For data set [7], the system named is NF-κB. The note with it: cited from earlier work.
The test system of data set [8] is NF-κB p65. The settings on record: cited from earlier work.
Data set [9] deals with Mdx mice. In words: Histology (H&E and picrosirius red staining) of quadriceps, PMO and CAT-1004 efficacy study in Mdx mice. The format is in vivo, mouse. The note with it: 4 weeks treatment, M23D PMO 40 mg/kg IV weekly or CAT-1004 1% in diet, compared to Mdx mice treated with saline.
Description: as §1, with “All non-CAT-1004 animals were fed a normal chow control diet and all non-M23D PMO animals were given weekly IV injections of saline.” left out, “Mice were sacrificed at 10 weeks of age (4 weeks post-first dose). The quadriceps, diaphragm, and heart were harvested from each of the respective treatment groups.” left out
To assess the effectiveness of a combination treatment of an exon skipping antisense oligonucleotide and an NF-Kb inhibitor in Duchenne muscular dystrophy, M23D PMO and CAT-1004 were utilized in the Mdx mouse model. The effect on inflammation and fibrosis was determined by analyzing samples of muscle taken from the quadriceps, of (1) wild-type mice treated with saline, (2) mdx mice treated with saline, (3) mdx mice treated with CAT-1004, (4) mdx mice treated with the M23D PMO, and (5) mdx mice treated with the M23D PMO in combination with CAT-1004. […]

Data set [10] concerns dystrophin protein. In words: Western blot analysis of dystrophin protein levels in Mdx mice. The note with it: quadriceps, diaphragm and heart of Mdx mice, combination compared to M23D PMO monotherapy. The class given is in vivo, mouse.
Description: as §1
Dystrophin protein was analyzed by Western blot analysis, and immunohistochemistry. […] Total protein concentration of the protein lysates were measured using Pierce™ BCA Protein Assay Kit (ThermoFisher Scientific catalog #23225). […]
A general note: In western blotting, separated proteins are transferred to a membrane and probed.

Data set [11] deals with dystrophin. As to the kind of experiment: Immunohistochemical analysis of dystrophin expression in quadriceps of Mdx mice. The note with it: compared to Mdx mice treated with saline or CAT-1004 monotherapy. The class given is in vivo, mouse.
Description: as §1
For immunohistochemistry, frozen quadriceps sections were serially cut and mounted on slides using a cryostat. Sections were rehydrated in PBS and then blocked with Mouse on Mouse (MOM) blocking buffer for 1 hour at room temperature. […]

Data set [12] has as its system ryanodine receptor. The note with it: mouse model of DMD; cited from earlier work.
The subject of data set [13] is ryanodine receptor. The settings on record: patient cells; cited from earlier work.
Data set [14] has as its system exon 51 of dystrophin pre-mRNA. The note with it: normal human skeletal muscle cells or muscle cells from DMD patients; RT-PCR and Western blot; cited from earlier work.
Data set [15] has as its system juvenile rats. The settings on record: T cell-dependent antibody responses, immunophenotyping of peripheral blood T- and B-cell subpopulations; cited from earlier work.
Data set [16] has as its system human DMD transcript. The note with it: hDMD mouse model; cited from earlier work.

“Also recorded” adds a separate entry of the source. Read-outs that look alike come from different tables or passages of the source. {TEG} = triethylene glycol tail moiety

As for `CC/C=C\C/C=C\C/C=C\C/C=C\C/C=C\CCCC(=O)NCCNC(=O)c1ccccc1O` [CAT-1041], in data set [1], the cNF-κB activation entry is reported as “inhibit cNF-κB activation in vitro”. Further, in data set [2], the inflammation and fibrosis result was “reduced inflammation and fibrosis”; the phenotype entry was “improves the phenotype”; the diaphragm function result was “improved diaphragm function”. In data set [2] (mdx mice, long-term studies), the muscle fibrosis entry is on record as “reduces muscle fibrosis” and the skeletal muscle weight entry is on record as “increases skeletal muscle weight”. Moreover, in [2] (mdx mice), the exercise endurance result is on record as “increased exercise endurance” and the muscle function entry is given as “preserves muscle function”. In data set [3], the phenotype result is listed as “improves the phenotype” and the diaphragm function result is given as “improved diaphragm function”.
In the case of G-2-beta-cyclodextrin, in data set [4], the solubility in water is reported as 147 % (w/v).
Regarding `CC/C=C\C/C=C\C/C=C\C/C=C\C/C=C\C/C=C\CCC(=O)NCCNC(=O)c1ccccc1O` [CAT-1004, N-(2-[(4Z,7Z,10Z,13Z,16Z,19Z)-docosa-4,7,10,13,16,19-hexaenamido]ethyl)-2-hydroxybenzamide], the “exon 23 skipping” value in [5] is “neither exon skipping nor dystrophin production were observed”. In addition, the cNF-κB activation result in [1] is reported as “inhibit cNF-κB activation in vitro”. For the same compound, in [2], the inflammation and fibrosis result is “reduced inflammation and fibrosis”; the phenotype result is recorded as “improves the phenotype”; the diaphragm function entry is on record as “improved diaphragm function”. Further, the cumulative run distance result in data set [2] (mdx mice, long-term studies) is “increased cumulative run distance”. Also, in data set [2] (mdx mice), the exercise endurance result was “increased exercise endurance”; the “muscle degeneration and inflammation” value is “reduce muscle degeneration and inflammation”; the muscle function entry was “preserve muscle function”; the muscle regeneration entry was “enhance muscle regeneration”. The safety and tolerability entry in [6] is recorded as “safe, well tolerated”. The “levels of the p65 subunit of NF-κB” value in data set [7] (healthy adult humans, compared to placebo or salicylate and omega-3 DHA as separate molecules) is on record as “lowers levels of the p65 subunit of NF-κB”. The “biomarkers of inflammation in whole blood” value in data set [7] (humans) was “decrease of biomarkers of inflammation”. Also, in [7] (phase I clinical program in adults, listed as Edasalonexent), the “activated NF-κB pathways” value is given as “inhibited activated NF-kB pathways; also recorded: inhibited activated NF-κB pathways”. In [3], the phenotype result was “improves the phenotype” and the diaphragm function result is reported as “improved diaphragm function”. In data set [8] (dog model of DMD), the NF-κB activity entry is listed as “decreases NF-κB activity”, the “binding of the p65 subunit to DNA” value is reported as “reduced binding of the p65 subunit to DNA” and the “secretion of the inflammatory mediator TNF-α” value is “reduced secretion of the inflammatory mediator TNF-α”. Moreover, in data set [8] (golden retriever DMD model), the “NF-κB p65-dependent inflammatory responses and downstream proinflammatory genes modulated by p65” value is listed as “significantly inhibit”. Besides, in [9], the “inflammation and fibrosis in quadriceps” value is “reduction of inflammation and fibrosis”. The dystrophin production entry in [10] is given as “neither exon skipping nor dystrophin production were observed”.
As to “M23D PMO: PMO hybridizing to mouse dystrophin exon 23 pre-mRNA, TEG tail at 5′ end, sequence GGCCAAACCTCGGCTTACCTGAAAT (SEQ ID NO: 30) (antisense GGCCAAACCTCGGCTTACCTGAAAT; all phosphorodiamidate morpholino (PMO), 5' {TEG})”, in data set [5], the “exon 23 skipping” value is listed as “Exon skipping was observed”. Further, the “dystrophin expression (immunohistochemistry)” value in data set [11] was “increase in dystrophin expression”. Moreover, in data set [9], the “inflammation and fibrosis in quadriceps” value was “reduction of inflammation and fibrosis”.
On to `O=C1CN(/N=C/c2ccc(-c3ccc([N+](=O)[O-])cc3)o2)C(O)=N1` [dantrolene], for which the antisense-mediated exon skipping result in [12] and in data set [13] was “enhance antisense-mediated exon skipping” each time.
Turning to eteplirsen, the “exon 51 skipping” value in [14] is listed as “potent inducer of exon 51 skipping”. The “effect on the immune response” value in data set [15] is “no adverse effect on the immune response”. Further, the “exon 51 skipping in vivo” value in data set [16] is reported as “confirmed in vivo”.
Regarding triacetyl-beta-cyclodextrin, the “solubility in water (in words)” value in data set [4] is on record as “insoluble”.
